The results in this text go back to patent US5250305A, “Process for enzymatic ultrafiltration of deamidated protein” (The United States of America as represented by the …, priority 1990, dated 1993).

Peptide text beside a SMILES is read from it.

This assay concerns PGase. Nature of the assay: Km and Vmax of PGase substrates (Lineweaver-Burk plot). In kind it is biochemical, Bacillus circulans. The following applies: 0.05 M phosphate buffer, pH 7.0, 30° C. The protocol:
A 1 mL enzyme preparation containing 0.25-0.50 mg protein was added to 2-5 mL substrate in 0.05 M phosphate buffer, pH 7.0. The substrate concentrations were 0.2% CBZ-L-Gln, 0.2% BOC-Gln-Pro and 0.2% peptone type IV. Peptone solutions (5%) were ultrafiltered prior to use, through the 30 kd spiral membrane incubated at 30° C. for 30 or 60 min, then the ammonia constant of the samples was determined with a model 95-10 ammonia electrode (Orion Research Inc., Cambridge, Mass.).
The effects of the molarity and pH of the sodium phosphate buffer on PGase activity were studied. The progress of the PGase deamidation reaction of Peptone IV in 0.05 M phosphate buffer, pH 7.0, as a function of time was measured at 25° C. and 30° C.

Turning to `CC(C)(C)OC(=O)N[C@@H](CCC(N)=O)C(=O)N1CCC[C@H]1C(=O)O` [BOC-glutamine-proline, t-BOC-L-glutaminyl-L-proline] (HELM PEPTIDE1{[CC(C)(C)OC(=O)[*:2]].Q.P}$$$$V2.0), the Km – broadly, the concentration of substrate that gives half-maximal velocity – stood at 143 µM and the Vmax – broadly, the top rate of the reaction or transport when substrate is in excess – is 0.52 µmol/min/mg.

With `NC(=O)CC[C@H](NC(=O)OCc1ccccc1)C(=O)O` [CBZ-glutamine, CBZ-L-glutamine], the Km amounted to 67 µM.
